Source: paper PMC7318222, “A Family of Water‐Immiscible, Dipolar Aprotic, Diamide Solvents from Succinic Acid” (Chemsuschem, 2020)

target: T1, AR (Homo sapiens, UniProt P10275); assay: AR-anti CALUX reporter gene assay (antagonistic mode); format: cell-based; set-up: key: –: no effect observed up to the highest test concentration; conditions: PC20, 24 h exposure
T1 construct: expression construct for the full-length human receptor under investigation; expressed in transfected cells; host or cells: human U2-OS cells (ATCC HTB-96), stably transfected
T1 sequence (P10275 1-920): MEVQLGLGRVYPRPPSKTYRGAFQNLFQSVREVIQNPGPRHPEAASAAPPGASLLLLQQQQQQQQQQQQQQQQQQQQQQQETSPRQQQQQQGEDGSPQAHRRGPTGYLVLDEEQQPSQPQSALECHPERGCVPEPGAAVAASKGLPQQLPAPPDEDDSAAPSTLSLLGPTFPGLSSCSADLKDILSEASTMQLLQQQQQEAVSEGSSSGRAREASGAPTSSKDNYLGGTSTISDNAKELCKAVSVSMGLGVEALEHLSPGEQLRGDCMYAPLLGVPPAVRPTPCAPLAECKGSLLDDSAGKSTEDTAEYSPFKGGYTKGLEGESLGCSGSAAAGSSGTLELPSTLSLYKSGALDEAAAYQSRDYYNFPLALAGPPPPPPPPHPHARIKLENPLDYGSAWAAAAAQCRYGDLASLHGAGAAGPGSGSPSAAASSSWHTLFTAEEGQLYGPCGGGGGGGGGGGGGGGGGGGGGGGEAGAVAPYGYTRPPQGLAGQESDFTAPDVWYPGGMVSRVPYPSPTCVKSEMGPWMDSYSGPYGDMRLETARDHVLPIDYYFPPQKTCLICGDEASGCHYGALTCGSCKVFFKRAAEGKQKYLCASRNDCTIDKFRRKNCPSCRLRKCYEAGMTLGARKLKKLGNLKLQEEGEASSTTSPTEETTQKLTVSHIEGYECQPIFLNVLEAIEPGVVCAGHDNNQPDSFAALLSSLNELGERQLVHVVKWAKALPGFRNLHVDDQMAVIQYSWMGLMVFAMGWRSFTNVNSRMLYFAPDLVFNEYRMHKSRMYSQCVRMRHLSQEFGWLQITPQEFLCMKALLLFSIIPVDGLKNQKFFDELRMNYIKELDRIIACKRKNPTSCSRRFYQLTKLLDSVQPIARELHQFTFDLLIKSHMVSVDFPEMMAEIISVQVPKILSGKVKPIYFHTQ
Description: Polyarylethersulfone of 55,000 Da were obtained from INGE.BASF, Germany. The CALUX cell lines have been described previously.[1] They are based on human U2-OS cells (ATCC, HTB-96) stably transfected with an expression construct for the full-length human receptor under investigation, and a reporter construct consisting of multimerized responsive elements for the cognate receptor coupled to a minimal promoter element (TATA) and a luciferase gene. Cells were maintained as described previously,[2] using cell culture media and supplements from Fisher Scientific as described in the experimental procedures section. […]
In vitro reporter gene assays
The automated CALUX assays were carried out similarly as described earlier,[12] with some adaptations. In brief, the assay was performed in CO2 independent medium (Fisher Scientific, […]
with 30 µl cell suspension/well. After 24 h, exposure medium was prepared. A dilution series in 0.5log unit increments of each test compound (in DMSO) was added to a 96-wells plate containing assay medium (2% v/v). Of this exposure mixture, 30 µl was added to the assay plates containing the CALUX cells, resulting in a final DMSO concentration of 1%. Additionally, DMSO blanks and a full dose response curve of the relevant reference compound were included on each plate. All samples were tested in triplicate. The preparation of the compound dilution series as well as the exposure of the cells were performed on a Hamilton StarLET liquid handling robot coupled to a Cytomat incubator.
Directly after exposure, plates were sealed with non-breathing plate seals (Plate sealer, easy seal […]
After 24 h the exposure medium was removed using an EL406 washer-dispenser (BioTek) and 10 µl/well triton lysisbuffer was added by the EL406.
Subsequently, the luciferase signal was measured in a luminometer (InfinitePro coupled to a Connect Stacker, both TECAN). In order to be able to detect receptor antagonism, several assays were also performed in antagonistic mode. The assay procedure was as described above, with the only exception that the EC50 concentration of the reference agonist was present during the exposure.
The luminometer data was analysed as follows; the average of the triplicate wells was determined, […]

LEC AR‐anti, –:
CCCCN(CC)C(=O)CCC(=O)N(CC)CCCC [EBSA, N,N′‐diethyl‐N,N′‐dibutylsuccindiamide]
CCCCN(CCCC)C(=O)CCC(=O)N(CCCC)CCCC [TBSA, N,N,N′,N′‐tetrabutylsuccindiamide]
CCCCN(C)C(=O)CCC(=O)N(C)CCCC [MBSA, N,N′‐dimethyl‐N,N′‐dibutylsuccindiamide]
CCCCN1CCCC1=O [NBP, N‐Butylpyrrolidinone, reference compound]
